Experiments:
[1] = target: T1, AtPORC (Arabidopsis thaliana, UniProt O48741); details: 400 uM OPT lipids; substrate; read-out: illuminated, 400 uM OPT, KM^L
T1 construct: gene PORC
T1 sequence (O48741 68-401): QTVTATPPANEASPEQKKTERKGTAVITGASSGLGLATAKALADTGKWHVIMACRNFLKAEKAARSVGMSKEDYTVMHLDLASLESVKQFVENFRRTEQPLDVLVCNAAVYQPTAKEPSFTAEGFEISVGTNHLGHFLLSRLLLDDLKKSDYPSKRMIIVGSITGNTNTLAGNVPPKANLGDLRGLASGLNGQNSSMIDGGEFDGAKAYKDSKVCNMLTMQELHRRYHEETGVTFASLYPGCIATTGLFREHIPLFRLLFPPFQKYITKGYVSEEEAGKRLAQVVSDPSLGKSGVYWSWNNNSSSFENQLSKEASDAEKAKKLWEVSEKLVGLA
From the text: (§1) All samples were thawed in darkness, illuminated for 20 s to initiate the reaction, and then frozen again and remeasured. […] These plots also resembled saturation curves, to which a hyperbolic function similar to the modified Michaelis–Menten equation could be fitted (Figs. 3C, S5, Materials and Methods).

[2] = target: T2, AtPORB (Arabidopsis thaliana, UniProt P21218); details: 400 uM OPT lipids; substrate; read-out: illuminated, 400 uM OPT, KM^L
T2 construct: gene PORB
T2 sequence (P21218 67-401): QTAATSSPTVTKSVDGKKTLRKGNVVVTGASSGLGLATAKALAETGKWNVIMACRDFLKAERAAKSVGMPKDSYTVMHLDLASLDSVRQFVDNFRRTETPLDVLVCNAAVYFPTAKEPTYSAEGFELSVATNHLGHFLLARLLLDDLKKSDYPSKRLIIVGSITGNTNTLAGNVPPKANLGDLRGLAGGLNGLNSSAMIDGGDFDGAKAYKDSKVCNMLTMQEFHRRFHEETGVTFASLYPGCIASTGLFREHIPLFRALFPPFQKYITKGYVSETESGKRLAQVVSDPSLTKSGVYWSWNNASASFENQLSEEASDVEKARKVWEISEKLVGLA
From the text: as §1

[3] = target: T3, AtPORA (Arabidopsis thaliana, UniProt Q42536); details: 400 uM OPT lipids; substrate; read-out: illuminated, 400 uM OPT, KM^L
T3 construct: gene PORA
T3 sequence (Q42536 70-405): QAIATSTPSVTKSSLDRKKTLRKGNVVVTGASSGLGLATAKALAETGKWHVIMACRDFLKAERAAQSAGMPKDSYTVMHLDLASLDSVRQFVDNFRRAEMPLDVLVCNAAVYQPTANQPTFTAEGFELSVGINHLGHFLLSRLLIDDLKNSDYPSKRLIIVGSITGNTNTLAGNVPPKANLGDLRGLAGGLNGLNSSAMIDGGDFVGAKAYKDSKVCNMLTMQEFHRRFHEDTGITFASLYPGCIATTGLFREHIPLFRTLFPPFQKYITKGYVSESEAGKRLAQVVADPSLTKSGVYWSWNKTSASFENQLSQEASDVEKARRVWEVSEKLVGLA
From the text: as §1

[4] = target: T4, TaPOR2 (Triticum aestivum, UniProt A0A3B5XZQ9); details: 400 uM OPT lipids; substrate; read-out: illuminated, 400 uM OPT, KM^L
T4 construct: gene LOC123047424
T4 sequence (A0A3B5XZQ9 60-395): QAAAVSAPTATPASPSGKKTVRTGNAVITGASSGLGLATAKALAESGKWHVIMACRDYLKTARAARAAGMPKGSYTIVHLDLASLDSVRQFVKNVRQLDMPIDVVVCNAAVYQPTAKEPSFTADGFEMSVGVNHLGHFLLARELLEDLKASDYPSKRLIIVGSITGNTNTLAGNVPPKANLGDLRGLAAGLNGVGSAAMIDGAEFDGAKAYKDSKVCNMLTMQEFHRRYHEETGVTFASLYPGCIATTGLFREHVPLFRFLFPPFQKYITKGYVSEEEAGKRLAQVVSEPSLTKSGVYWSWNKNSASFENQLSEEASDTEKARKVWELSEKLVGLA
From the text: as §1

[5] = target: T5, HaPOR2 (Helianthus annuus, UniProt A0A251TWA4); assay: […] K Pchlide fluorescence in darkness, F648/F635 ratio vs NADPH, hyperbolic fit; assay type: binding; details: lipid-free; 5 μM Pchlide, 15 μM LPOR, pH 7.1, room-temperature dark incubation; apparent parameter, exact value in supplement; read-out: KM^D
T5 construct: gene PORA; transit peptide removed; pET15b
T5 sequence (A0A251TWA4 53-387): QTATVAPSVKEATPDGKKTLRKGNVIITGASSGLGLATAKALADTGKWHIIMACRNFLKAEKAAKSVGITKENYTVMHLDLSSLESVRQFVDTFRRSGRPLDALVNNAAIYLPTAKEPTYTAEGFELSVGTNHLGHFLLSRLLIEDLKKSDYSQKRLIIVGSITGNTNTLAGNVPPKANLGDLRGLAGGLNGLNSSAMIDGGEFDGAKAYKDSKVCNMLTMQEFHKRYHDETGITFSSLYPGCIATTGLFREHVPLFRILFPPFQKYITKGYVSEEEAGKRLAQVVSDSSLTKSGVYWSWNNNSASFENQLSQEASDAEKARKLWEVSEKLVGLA

[6] = target: T2, AtPORB; assay: as above; assay type: binding; details: lipid-free; 5 μM Pchlide, 15 μM LPOR, pH 7.1, room-temperature dark incubation; apparent parameter, exact value in supplement; read-out: KM^D
[7] = target: T6, PeaPOR (Lathyrus oleraceus, UniProt Q01289); assay: as above; assay type: binding; details: lipid-free; 5 μM Pchlide, 15 μM LPOR, pH 7.1, room-temperature dark incubation; apparent parameter, exact value in supplement; read-out: KM^D
T6 construct: gene 3PCR; transit peptide removed; pET15b
T6 sequence (Q01289 65-399): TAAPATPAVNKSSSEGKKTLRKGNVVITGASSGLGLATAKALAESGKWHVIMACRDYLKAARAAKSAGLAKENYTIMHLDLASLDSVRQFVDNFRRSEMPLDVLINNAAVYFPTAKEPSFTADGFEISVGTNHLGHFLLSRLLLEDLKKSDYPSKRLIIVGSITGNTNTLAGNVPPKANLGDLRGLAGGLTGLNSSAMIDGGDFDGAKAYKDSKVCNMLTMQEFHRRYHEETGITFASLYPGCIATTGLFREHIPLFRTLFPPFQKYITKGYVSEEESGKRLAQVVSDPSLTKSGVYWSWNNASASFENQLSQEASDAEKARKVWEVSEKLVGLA

How did the Km [1] turn out when NC(=O)C1=CN([C@@H]2O[C@H](COP(=O)(O)OP(=O)(O)OC[C@H]3O[C@@H](n4cnc5c(N)ncnc54)[C@H](OP(=O)(O)O)[C@@H]3O)[C@@H](O)[C@H]2O)C=CC1 [NADPH] was run?
The Km was 0.7 µM.

And the Km [2]?
Its Km is 1.3 µM.

And the Km [3]?
The Km was 2.5 µM.

And the Km [4]?
Its Km is 6.1 µM.

And the Kd [5]?
The Kd was less than 10 µM.

And the Kd [6]?
The Kd was greater than 100 µM.

And the Kd [7]?
The Kd was less than 10 µM.

Reference: paper PMC11930087, “Mobility of four structural regions drives isoform-specific properties of photoenzyme LPOR in plants” (The Journal of Biological Chemistry, 2025)
